Assay [1] in a line: Inhibition of [3H]citalopram Binding to the Serotonin Transporter in Rhesus (Macaca mulatta) or Cynomolgus Monkey (Macaca fascicularis) Caudate-Putamen.
The target of assay [2] is Sodium-dependent dopamine transporter (Macaca mulatta). In words: Inhibition of [3H]WIN-35428 Binding to the Dopamine Transporter in Rhesus (Macaca mulatta) orCynomolgus Monkey (Macaca fascicularis) Caudate-Putamen.

Molecules are shown by their SMILES.

Consider `COC(=O)[C@@H](c1ccccc1)[C@@H]1CCCCO1`, for which the IC50 in assay [1] was greater than 100 µM; in assay [2] it was 3 µM.
As for `COC(=O)C(c1ccc(Cl)c(Cl)c1)C1CCCC1` (configuration not stated), the IC50 in assay [1] came to 7 µM; in assay [2] it was 0.047 µM.
For `COC(=O)[C@@H](c1ccc2ccccc2c1)[C@@H]1CCCCO1`, in that order: 1 µM and 0.43 µM.
The corresponding values for `N#CC(c1ccc(Cl)c(Cl)c1)C1CCCC1` (configuration not stated) are 10 µM and 0.128 µM.
In assay [1], `COC(=O)C(c1ccc(Cl)c(Cl)c1)C1CCCCC1` (configuration not stated) returned an IC50 of 12 µM.
Same read-out and setting: with `COC(=O)[C@H](c1ccc(Cl)c(Cl)c1)[C@H]1CCCCO1` the figure was greater than 10 µM.
As to `N#CC(c1ccc(Cl)c(Cl)c1)C1CCCCC1` (configuration not stated), the half-maximal inhibitory concentration (IC50) worked out at 8 µM in assay [1] and 0.127 µM in assay [2].
`COC(=O)C(c1ccccc1)C1CCCCN1` (racemic) [METHYLPHENIDATE] returned an IC50 in assay [1] greater than 100 µM.
As to `COC(=O)[C@H](c1ccccc1)[C@@H]1CCCCO1` (single isomer, unassigned), the IC50 in assay [1] is greater than 100 µM; in assay [2], 13 µM.
On to `COC(=O)[C@@H](c1ccc(Cl)c(Cl)c1)[C@H]1CCCCO1` (single isomer, unassigned), for which the half-inhibitory concentration (IC50) in assay [1] was 7.8 µM.
For the molecule `COC(=O)[C@H](c1ccc2ccccc2c1)[C@@H]1CCCCO1` (single isomer, unassigned), the IC50 is 10 µM in assay [1] and 4 µM in assay [2].
Regarding `COC(=O)[C@H](c1ccc(Cl)c(Cl)c1)[C@@H]1CCCCO1` (single isomer, unassigned; 5c), the IC50 in assay [1] amounted to 7.79 µM.
Same read-out and setting: to `COC(=O)[C@H](c1ccc(Cl)c(Cl)c1)[C@@H]1CCCCO1` (single isomer, unassigned; 15) belongs greater than 10 µM.
The same measure, in the same setting: to `COC(=O)[C@@H](c1ccc(Cl)c(Cl)c1)[C@@H]1CCCCO1` (stereo in doubt; 4c) belongs 2.18 µM; to `COC(=O)[C@@H](c1ccc(Cl)c(Cl)c1)[C@@H]1CCCCO1` (stereo in doubt; 12), 1.66 µM.
